{"source": "paper PMC6572135", "about": "“N-Methyl-D-glucamine–Calix[4]resorcinarene Conjugates: Self-Assembly and Biological Properties” (Molecules, 2019)", "key": {"[1]": {"test": "Tensiometry (surface tension, Du-Noüy ring), critical aggregation concentration", "assay_type": "physicochemical", "conditions": "25 °C", "procedure": "In the next step of the study of GCR self-assembly the tensiometry method was used. Surface tension decreases with increasing GCR-1 concentration, but above the CAC (15 mM) the slope angle of the dependence changes (Figure 2). […] Concentration point of 15 mM, at which occurs inflection of surface tension dependence, corresponds to CAC that is in good agreement with conductometric value. The tensiometric CAC value of GCR-2 (3.3 mM) is slightly different from the conductometric value (7.9 mM, Table 1). The tensiometry method is well known to fix the changes of the mutual disposition of the molecules at the water–air interface, whereas conductometry measures the number and mobility of ions in the bulk solution. The CAC values obtained for GCR-2 are lower compared to those for GCR-1. The improved ability to aggregation of GCR-2 in comparison with GCR-1 may be due higher hydrophobicity of GCR-2. The relations between the surface tension and the concentration of macrocycle solution were illustrated in Figure 8. […] The first inflection point was determined after a concentration of 10 mM, which can be correlated with the CAC value in the aqueous environment. […] The turning point of the tensiometric curve for GCR-2 can be determined as 3.3 mM that is same as in water. […]"}, "[2]": {"test": "UV spectroscopy (absorption at 500 nm), critical aggregation concentration", "assay_type": "physicochemical", "conditions": "water solution; GCR-2 in the presence of two-fold excess of MG", "procedure": "Consequently, there is a chance that GCR-1 aggregates form not only by hydrogen bonds between hydroxylic groups but also by electrostatic interaction between negatively charged sulfonate groups on the lower rim and partially-positively charged meglumine groups on the upper rim. The change of optical density at 500 nm with increasing GCR-1 concentration has a nonlinear character (Figure 3b). The linear dependence breaks after 10 mM that correlates well with the CAC obtained by conductometry and tensiometry, and this violation of Lambert-Beer law is due to formation of GCR-1 aggregates in solution.\nDependence of GCR-2 at 500 nm on its concentration also loses linearity at higher 7.2 mM (Figure 3b). This is because the dissolved molecules of GCR-2 aggregate that confirms by conductometry and tensiometry. The obtained values of the correlation coefficients r^2 calculated for both calixarenes in a wide concentration range depict that GCR-2 has a greater ability to aggregate than GCR-1. […] Probably, the short methyl groups fail to form a nonpolar core capable of incorporating hydrophobic guests. Thus, the cooperative effect of hydrogen bonds and π-stacking between GCR-2 molecules contribute to formation of compact aggregates incapable to solubilization of hydrophobic molecules. […]"}}}
{"smiles": "CC1c2cc(c(O)c(CN(C)C[C@@H](O)[C@H](O)[C@@H](O)[C@@H](O)CO)c2O)C(C)c2cc(c(O)c(CN(C)C[C@@H](O)[C@H](O)[C@@H](O)[C@@H](O)CO)c2O)C(C)c2cc(c(O)c(CN(C)C[C@@H](O)[C@H](O)[C@@H](O)[C@@H](O)CO)c2O)C(C)c2cc1c(O)c(CN(C)C[C@@H](O)[C@H](O)[C@@H](O)[C@@H](O)CO)c2O", "note": "(stereo partly drawn) [GCR-2, N-methyl-D-glucaminemethyl methylcalix[4]resorcinarene]", "values": [{"measurement": "First inflection / turning point of the tensiometric curve", "setting": "[1]; 50% DMSO–50% water", "value": 3.3, "unit": "mM"}, {"measurement": "CAC, tensiometry", "setting": "[1]; water solution, GCR-2 in the presence of two-fold excess of MG", "value": 3.3, "unit": "mM"}, {"measurement": "CAC, UV spectroscopy (loss of linearity of absorption at 500 nm)", "setting": "[2]", "value": 7.2, "unit": "mM"}]}
